According to patent US20060116354A1, “Antineoplastic ether lipid compounds with modifications at the sn-3 carbon” (priority 2003, published 2006):

Tested on: platelets
Procedure: Briefly, whole citrated blood is diluted 1:2 with sterile saline and placed in a warm chamber with a mini stir bar. An electronic probe, measuring electrical resistance, is inserted in the sample. The aggregometer is calibrated and the baseline is observed to detect any spontaneous aggregation. The test sample is added and allowed to run for at least 6 minutes. If the sample is an agonist the platelets will start to aggregate and stick to the electronic probe causing resistance across the electrodes to increase. This resistance, in ohms, is measured 6 minutes post addition of sample. The test samples are run at 25, 100, 200, 400 and 800 uM and compared to 100 uM L-ET-18-OCH3.
Collection of Blood Sample for in vitro Platelet Aggregation Testing: Venous blood is collected in 4.5 mL. Vacutainer tubes containing 0.129 M sodium citrate using a 21G needle or larger. Blood is immediately mixed by gentle inversion 15-20 times and kept at room temperature. Dilution ratio is 1 to 9 (3.8% citrate solution:blood). One (2.0 mL) Vacutainer tube containing EDTA is also collected for platelet counts. Complete blood counts (CBC) are measured on the CDC Technologies Hemavet 1500 to ensure that the test subject's platelets are within normal range. Any vials of hemolytic blood or blood containing any clots should be discarded. Platelet aggregation testing must be completed within 3 hours of blood collection. After this time the ability of platelets to aggregate decreases.
Cloudy solutions were warmed to ˜50° C. to dissolve and particles. Dilutions were prepared in PBS or saline at 40× concentration. (25 uL test sample are added to 1000 uL diluted blood (1:40)).

Relative Platelet Aggregation (Ohms) 25 μM [Ohms] | Relative Platelet Aggregation (Ohms) 100 μM [Ohms] | Relative Platelet Aggregation (Ohms) 200 μM [Ohms] | Platelet aggregation response (in words) | Structure (SMILES)
0 | 0 | 0 | – | CCCCCCCCCCCCCCCCCCOCC(COP(=O)([O-])OCC[N+](C)(C)C)OC [D-ET18OCH3, 1-O-octadecyl-2-O-methyl-glycerophosphocholine]
13 | 14 | 12 | elicits a platelet aggregation response | CCCCCCCCCCCCCCCCCCOCC(COP(=O)([O-])OCC[N+](C)(C)C)OC [L-ET18OCH3, 1-O-octadecyl-2-O-methyl-glycerophosphocholine]
